Experimental data taken from patent publication US9109004B2, “Progesterone receptor antagonists” (Bayer Intellectual Property GmbH, priority 2010, dated 2015).

Each compound was assayed against T1, human progesterone receptor A (Homo sapiens, UniProt P06401) (assay: Progesterone-receptor-antagonistic action in stably transfected SK-N-MC cells, MTV-LUC reporter (PR-A)). Conditions: antagonistic potency vs 0.1 nmol/l promegestone, 24 hours, luciferase.
T1 construct: expressed in transfected cells; host or cells: SK-N-MC human neuroblastoma cells, stably transfected
T1 sequence (P06401 1-769 isoform P06401-2): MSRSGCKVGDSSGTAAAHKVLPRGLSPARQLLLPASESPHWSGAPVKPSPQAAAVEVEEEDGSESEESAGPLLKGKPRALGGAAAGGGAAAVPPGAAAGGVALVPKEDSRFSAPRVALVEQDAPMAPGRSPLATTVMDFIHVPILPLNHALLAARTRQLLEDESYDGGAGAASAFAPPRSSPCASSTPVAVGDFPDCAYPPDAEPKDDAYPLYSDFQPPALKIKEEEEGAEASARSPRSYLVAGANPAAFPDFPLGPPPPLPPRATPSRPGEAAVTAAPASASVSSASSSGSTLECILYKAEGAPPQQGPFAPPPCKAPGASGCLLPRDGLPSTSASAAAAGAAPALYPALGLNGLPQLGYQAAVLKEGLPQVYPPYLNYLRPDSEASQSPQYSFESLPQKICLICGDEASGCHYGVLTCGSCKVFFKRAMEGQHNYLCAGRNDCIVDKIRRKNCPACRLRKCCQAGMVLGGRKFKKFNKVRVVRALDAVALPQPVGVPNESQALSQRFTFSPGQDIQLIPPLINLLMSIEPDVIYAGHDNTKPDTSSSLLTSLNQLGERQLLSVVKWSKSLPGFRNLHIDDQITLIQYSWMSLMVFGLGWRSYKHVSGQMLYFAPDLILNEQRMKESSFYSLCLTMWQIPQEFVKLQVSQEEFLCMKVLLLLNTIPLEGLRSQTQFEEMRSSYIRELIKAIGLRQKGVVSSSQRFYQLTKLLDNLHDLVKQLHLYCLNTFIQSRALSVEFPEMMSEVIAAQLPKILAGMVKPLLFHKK
Assay type: cell-based
Method: Progesterone-Receptor-Antagonistic Action in Stable Transfectants of Human Neuroblastoma Cells (SK-N-MC Cells) with the Human Progesterone A or Progesterone B Receptor and an MTV-LUC Reporter Construct
SK-N-MC cells (human neuroblastoma cells) that have been stably transfected with plasmids that express the human progesterone receptor B (pRChPR-B-neo) or the human progesterone receptor A (pRChPR-A-neo) and a reporter construct (pMMTV-LUC), were incubated for 24 hours either in the absence (negative control) or in the presence of increasing amounts of the particular test compound (0.01 nmol/l, 0.1 nmol/l, 1 nmol/l, 10 nmol/l, 100 nmol/l and 1 μmol/l), to determine the agonistic efficacy. As positive control of reporter gene induction, the cells were treated with the synthetic gestagen promegestone (0.01 nmol/l, 0.1 nmol/l, 1 nmol/l, 10 nmol/l, 100 nmol/l and 1 μmol/l). For determination of the antagonistic activity, the cells were treated with 0.1 nmol/l promegestone and additionally with increasing amounts of the particular test compound (0.01 nmol/l, 0.1 nmol/l, 1 nmol/l, 10 nmol/l, 100 nmol/l and 1 μmol/l). The activity of the reporter gene LUC (LUC=luciferase) was determined in the cell lysates and was measured as RLU (relative light units). All measured values are given as % efficacy and as EC50 or IC50 concentrations.

IC50	Structure (SMILES)
51 nM	C[C@]12C[C@H](c3ccc(C(=O)NCc4ccncc4)cc3)C3=C4CCC(=O)C=C4CC[C@H]3[C@@H]1CC[C@@]2(O)C(F)(F)C(F)(F)F [Example 21, 4-[(11β,17β)-17-hydroxy-3-oxo-17-(pentafluoroethyl)estra-4,9-dien-11-yl]-N-(pyridin-4-ylmethyl)benzamide]
346 nM	CN(C)CCN1CCN(C(=O)c2ccc([C@H]3C[C@@]4(C)[C@@H](CC[C@@]4(O)C(F)(F)C(F)(F)F)[C@@H]4CCC5=CC(=O)CCC5=C43)cc2)CC1 [Example 47, (11β,17β)-11-[4-({4-[2-(dimethylamino)ethyl]piperazin-1-yl}carbonyl)phenyl]-17-hydroxy-17-(pentafluoroethyl)estra-4,9-dien-3-one]
7.3 nM	C[C@]12C[C@H](c3ccc(C(=O)N4CCN(Cc5cccnc5)CC4)cc3)C3=C4CCC(=O)C=C4CC[C@H]3[C@@H]1CC[C@@]2(O)C(F)(F)C(F)(F)F [Example 69, (11β,17β)-17-hydroxy-17-(pentafluoroethyl)-11-(4-{[4-(pyridin-3-ylmethyl)piperazin-1-yl]carbonyl}phenyl)estra-4,9-dien-3-one]
375 nM	CN(Cc1cccnc1)C(=O)c1ccc([C@H]2C[C@@]3(C)[C@@H](CC[C@@]3(O)C(F)(F)C(F)(F)F)[C@@H]3CCC4=CC(=O)CCC4=C32)cc1 [Example 32, 4-[(11β,17β)-17-hydroxy-3-oxo-17-(pentafluoroethyl)estra-4,9-dien-11-yl]-N-methyl-N-(pyridin-3-ylmethyl)benzamide]
3.7 nM	COc1cccc(NC(=O)c2ccc([C@H]3C[C@@]4(C)[C@@H](CC[C@@]4(O)C(F)(F)C(F)(F)F)[C@@H]4CCC5=CC(=O)CCC5=C43)cc2)c1 [Example 24, 4-[(11β,17β)-17-hydroxy-3-oxo-17-(pentafluoroethyl)estra-4,9-dien-11-yl]-N-(3-methoxyphenyl)benzamide]
0.8 nM	COC(=O)c1cccc(NC(=O)c2ccc([C@H]3C[C@@]4(C)[C@@H](CC[C@@]4(O)C(F)(F)C(F)(F)F)[C@@H]4CCC5=CC(=O)CCC5=C43)cc2)c1 [Example 57, methyl-3-({4-[(11β,17β)-17-hydroxy-3-oxo-17-(pentafluoroethyl)estra-4,9-dien-11-yl]benzoyl}amino)benzoate]
34 nM	COc1ccc(CNC(=O)c2ccc([C@H]3C[C@@]4(C)[C@@H](CC[C@@]4(O)C(F)(F)C(F)(F)F)[C@@H]4CCC5=CC(=O)CCC5=C43)cc2)cc1 [Example 35, 4-[(11β,17β)-17-hydroxy-3-oxo-17-(pentafluoroethyl)estra-4,9-dien-11-yl]-N-(4-methoxybenzyl)benzamide]
1.4 nM	CN(CCc1cccnc1)C(=O)c1ccc([C@H]2C[C@@]3(C)[C@@H](CC[C@@]3(O)C(F)(F)C(F)(F)F)[C@@H]3CCC4=CC(=O)CCC4=C32)cc1 [Example 72, 4-[(11β,17β)-17-hydroxy-3-oxo-17-(pentafluoroethyl)estra-4,9-dien-11-yl]-N-methyl-N-[2-(pyridin-3-yl)ethyl]benzamide]
6.9 nM	C[C@]12C[C@H](c3ccc(C(=O)NCC4CC4)cc3)C3=C4CCC(=O)C=C4CC[C@H]3[C@@H]1CC[C@@]2(O)C(F)(F)C(F)(F)F [Example 59, N-(cyclopropylmethyl)-4-[(11β,17β)-17-hydroxy-3-oxo-17-(pentafluoroethyl)estra-4,9-dien-11-yl]benzamide]
9.5 nM	C[C@]12C[C@H](c3ccc(C(=O)N4CCc5ccccc5C4)cc3)C3=C4CCC(=O)C=C4CC[C@H]3[C@@H]1CC[C@@]2(O)C(F)(F)C(F)(F)F [Example 39, (11β,17β)-11-[4-(3,4-dihydroisoquinolin-2(1H)-ylcarbonyl)phenyl]-17-hydroxy-17-(pentafluoroethyl)estra-4,9-dien-3-one]
0.5 nM	C[C@]12C[C@H](c3ccc(C(=O)Nc4ccccc4C(=O)O)cc3)C3=C4CCC(=O)C=C4CC[C@H]3[C@@H]1CC[C@@]2(O)C(F)(F)C(F)(F)F [Example 76, 2-({4-[(11β,17β)-17-Hydroxy-3-oxo-17-(pentafluoroethyl)estra-4,9-dien-11-yl]benzoyl}amino)benzoic acid]
1.32 nM	C[C@]12C[C@H](c3ccc(C(=O)Nc4cccnc4)cc3)C3=C4CCC(=O)C=C4CC[C@H]3[C@@H]1CC[C@@]2(O)C(F)(F)C(F)(F)F [Example 12, 4-[(11β,17β)-17-hydroxy-3-oxo-17-(pentafluoroethyl)estra-4,9-dien-11-yl]-N-(pyridin-3-yl)benzamide]
0.67 nM	C[C@]12C[C@H](c3ccc(C(=O)NCCc4ccccc4)cc3)C3=C4CCC(=O)C=C4CC[C@H]3[C@@H]1CC[C@@]2(O)C(F)(F)C(F)(F)F [Example 16, 4-[(11β,17β)-17-hydroxy-3-oxo-17-(pentafluoroethyl)estra-4,9-dien-11-yl]-N-(2-phenylethyl)benzamide]
7.2 nM	C[C@]12C[C@H](c3ccc(C(=O)N4CCN(c5ccccc5)CC4)cc3)C3=C4CCC(=O)C=C4CC[C@H]3[C@@H]1CC[C@@]2(O)C(F)(F)C(F)(F)F [Example 30, (11β,17β)-17-hydroxy-17-(pentafluoroethyl)-11-{4-[(4-phenylpiperazin-1-yl)carbonyl]phenyl}estra-4,9-dien-3-one]
4.1 nM	C[C@]12C[C@H](c3ccc(C(=O)N4CCC(c5ccccc5)CC4)cc3)C3=C4CCC(=O)C=C4CC[C@H]3[C@@H]1CC[C@@]2(O)C(F)(F)C(F)(F)F [Example 63, (11β,17β)-17-hydroxy-17-(pentafluoroethyl)-11-{4-[(4-phenylpiperidin-1-yl)carbonyl]phenyl}estra-4,9-dien-3-one]
7.3 nM	C[C@]12C[C@H](c3ccc(C(=O)NC4CC4)cc3)C3=C4CCC(=O)C=C4CC[C@H]3[C@@H]1CC[C@@]2(O)C(F)(F)C(F)(F)F [Example 42, N-cyclopropyl-4-[(11β,17β)-17-hydroxy-3-oxo-17-(pentafluoroethyl)estra-4,9-dien-11-yl]benzamide]
16 nM	C[C@]12C[C@H](c3ccc(C(=O)N4CCN(Cc5ccccn5)CC4)cc3)C3=C4CCC(=O)C=C4CC[C@H]3[C@@H]1CC[C@@]2(O)C(F)(F)C(F)(F)F [Example 68, (11β,17β)-17-hydroxy-17-(pentafluoroethyl)-11-(4-{[4-(pyridin-2-ylmethyl)piperazin-1-yl]carbonyl}phenyl)estra-4,9-dien-3-one]
1.4 nM	CCNC(=O)c1ccc([C@H]2C[C@@]3(C)[C@@H](CC[C@@]3(O)C(F)(F)C(F)(F)F)[C@@H]3CCC4=CC(=O)CCC4=C32)cc1 [Example 19, N-ethyl-4-[(11β,17β)-17-hydroxy-3-oxo-17-(pentafluoroethyl)estra-4,9-dien-11-yl]benzamide]
10.8 nM	CN(Cc1ccccn1)C(=O)c1ccc([C@H]2C[C@@]3(C)[C@@H](CC[C@@]3(O)C(F)(F)C(F)(F)F)[C@@H]3CCC4=CC(=O)CCC4=C32)cc1 [Example 31, 4-[(11β,17β)-17-hydroxy-3-oxo-17-(pentafluoroethyl)estra-4,9-dien-11-yl]-N-methyl-N-(pyridin-2-ylmethyl)benzamide]
0.39 nM	C[C@]12C[C@H](c3ccc(C(=O)Nc4ccc(C(=O)Nc5ccccc5)cc4)cc3)C3=C4CCC(=O)C=C4CC[C@H]3[C@@H]1CC[C@@]2(O)C(F)(F)C(F)(F)F [Example 60, 4-[(11β,17β)-17-hydroxy-3-oxo-17-(pentafluoroethyl)estra-4,9-dien-11-yl]-N-[4-(phenylcarbamoyl)phenyl]benzamide]
5.7 nM	CN(CCc1ccncc1)C(=O)c1ccc([C@H]2C[C@@]3(C)[C@@H](CC[C@@]3(O)C(F)(F)C(F)(F)F)[C@@H]3CCC4=CC(=O)CCC4=C32)cc1 [Example 58, 4-[(11β,17β)-17-hydroxy-3-oxo-17-(pentafluoroethyl)estra-4,9-dien-11-yl]-N-methyl-N-[2-(pyridin-4-yl)ethyl]benzamide]
